Measured values as given in US6358942B1, “Phenyloxazolidinones having a c-c bond 4-8 membered heterocyclic rings” (Pharmacia & Upjohn Company, priority 1995, dated 2002).
Where two headings read alike, the source gives them in different places.

Key:
[1] = test system: Staphylococcus aureus or Streptococcus species; assay: Murine Assay: in vivo antimicrobial activity, survival of mice infected intraperitoneally with bacteria; details: Table 2, female mice, treatment 1 h and 5 h after infection, oral intubation or subcutaneous, survival over six days, probit analysis of mortality ratios
Method: Antimicrobial activity was tested in vivo using the Murine Assay procedure. Groups of female mice (six mice of 18-20 grams each) were injected intraperitoneally with bacteria which were thawed just prior to use and suspended in brain heart infusion with 4% brewers yeast (Staphylococcus aureus) or brain heart infusion (Streptococcus species). Antibiotic treatment at six dose levels per drug was administered one hour and five hours after infection by either oral intubation or subcutaneous routes. Survival was observed daily for six days. ED50 values based on mortality ratios were calculated using probit analysis. The subject compounds are compared against well-known antimicrobials vancomycin and U-100592 as controls. See “Upjohn Oxazolidinone Antibacterial Agent”, posters presented at the 35th Interscience Conference on Antimicrobial Agents and Chemotherapy.

| Compound | ED50 [1] [mg/kg] | also measured |
| --- | --- | --- |
| CC(=O)NC[C@H]1CN(c2ccc(C3=CCCCO3)c(F)c2)C(=O)O1 [Example 80, (S)-N-[[3-[3-Fluoro-4-(3,4-dihydro-2H-pyran-6-yl)phenyl]-2-oxo-5-oxazolidinyl]methyl]acetamide] |  | melting point: 161 to 163 °C |
| CC(=O)NC[C@H]1CN(c2ccc(C3CN(C=O)C3)c(F)c2)C(=O)O1 [Example 84, (S)-N-[[3-[3-Fluoro-4-[1-(formyl)-3-azetidinyl]phenyl]-2-oxo-5-oxazolidinyl]methyl]acetamide] |  | ED50 ([1]; read-out: ED50): 6.5 mg/kg |
| (5S)-N-[[3-[3-Fluoro-4-[1-(formyl)-3-pyrrolidinyl]phenyl]-2-oxo-5-oxazolidinyl]methyl] [Example 45] | 2.80 |  |
| (S)-(−)-N-[[3-[3-Fluoro-4-(dihydrothien-3-yl)-phenyl]-2-oxo-5-oxazolidinyl]methyl]acetamide [Example 67] | 13.3 |  |
